Source: PubChem BioAssay AID248 (DTP/NCI, 2004)
Several values for one entry are separate records, joined by “and”; a condition that tells them apart may be missing. Equal entries are not always repeated. Inconclusive results and toxic doses are left out. Cut-off read from the data, not from the text of the source: active = T/C of 150% or more; inactive = T/C below 125%.

Tested on: L1210 leukemia ip in BDF1 mice, survival T/C
Assay: NCI In Vivo Anticancer Drug Screen. Data for tumor model L1210 Leukemia (intraperitoneal) in B6D2F1 (BDF1) mice
Details: endpoint: mean survival time, higher = longer survival
Outline: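 Tumor was transplanted into mice, which were then dosed with test compound or vehicle alone. Survival was recorded for each group, and the treated figure was expressed relative to the control figure.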

[1] = dose: 50.0 mg/kg/injection, schedule: Q01DX009 (ip), vehicle: saline with Tween-80
[2] = dose: 100.0 mg/kg/injection, schedule: Q01DX009 (ip), vehicle: saline with Tween-80
[3] = dose: 100.0 mg/kg/injection, schedule: Q04DX003 (ip), vehicle: saline
[4] = dose: 200.0 mg/kg/injection, schedule: Q04DX003 (ip), vehicle: saline
[5] = dose: 400.0 mg/kg/injection, schedule: Q04DX003 (ip), vehicle: saline
[6] = dose: 50.0 mg/kg/injection, schedule: Q01DX001 (ip), vehicle: carboxymethylcellulose (CMC)
[7] = dose: 100.0 mg/kg/injection, schedule: Q01DX001 (ip), vehicle: carboxymethylcellulose (CMC)
[8] = dose: 200.0 mg/kg/injection, schedule: Q01DX001 (ip), vehicle: carboxymethylcellulose (CMC)
[9] = dose: 400.0 mg/kg/injection, schedule: Q01DX001 (ip), vehicle: carboxymethylcellulose (CMC)
[10] = dose: 100.0 mg/kg/injection, schedule: Q04DX002 (ip), vehicle: Klucel (hydroxypropylcellulose) (HPC)
[11] = dose: 200.0 mg/kg/injection, schedule: Q04DX002 (ip), vehicle: Klucel (hydroxypropylcellulose) (HPC)
[12] = dose: 100.0 mg/kg/injection, schedule: Q04DX003 (ip), vehicle: saline with Tween-80
[13] = dose: 200.0 mg/kg/injection, schedule: Q01DX009 (ip), vehicle: saline with Tween-80
[14] = dose: 200.0 mg/kg/injection, schedule: Q04DX003 (ip), vehicle: saline with Tween-80
[15] = dose: 400.0 mg/kg/injection, schedule: Q01DX009 (ip), vehicle: saline with Tween-80
[16] = dose: 400.0 mg/kg/injection, schedule: Q04DX003 (ip), vehicle: saline with Tween-80
[17] = dose: 75.0 mg/kg/injection, schedule: Q01DX001 (ip), vehicle: saline
[18] = dose: 150.0 mg/kg/injection, schedule: Q01DX001 (ip), vehicle: saline
[19] = dose: 300.0 mg/kg/injection, schedule: Q01DX001 (ip), vehicle: saline
[20] = dose: 100.0 mg/kg/injection, schedule: Q04DX003 (ip), vehicle: Klucel (hydroxypropylcellulose) (HPC)
[21] = dose: 200.0 mg/kg/injection, schedule: Q04DX003 (ip), vehicle: Klucel (hydroxypropylcellulose) (HPC)
[22] = dose: 400.0 mg/kg/injection, schedule: Q04DX003 (ip), vehicle: Klucel (hydroxypropylcellulose) (HPC)
[23] = dose: 50.0 mg/kg/injection, schedule: Q01DX009 (ip), vehicle: saline
[24] = dose: 100.0 mg/kg/injection, schedule: Q01DX001 (ip), vehicle: saline
[25] = dose: 100.0 mg/kg/injection, schedule: Q01DX009 (ip), vehicle: saline
[26] = dose: 200.0 mg/kg/injection, schedule: Q01DX001 (ip), vehicle: saline
[27] = dose: 400.0 mg/kg/injection, schedule: Q01DX001 (ip), vehicle: saline
[28] = dose: 100.0 mg/kg/injection, schedule: Q01DX009 (ip), vehicle: Klucel (hydroxypropylcellulose) (HPC)
[29] = dose: 200.0 mg/kg/injection, schedule: Q01DX009 (ip), vehicle: Klucel (hydroxypropylcellulose) (HPC)
[30] = dose: 400.0 mg/kg/injection, schedule: Q01DX009 (ip), vehicle: Klucel (hydroxypropylcellulose) (HPC)

Measured: T/C

Cc1ccc([N+](=O)[O-])cc1NC(=O)NNC(=O)CNC(=O)Nc1ccc(F)cc1
inactive: dose: 25.0 mg/kg/injection, schedule: Q01DX009 (ip), vehicle: saline with Tween-80 94 % of control | [1] 86 % of control | [2] 100 % of control

O=S(=O)(F)c1ccc(S)c(Cl)c1Cl
inactive: dose: 25.0 mg/kg/injection, schedule: Q04DX002 (ip), vehicle: saline with Tween-80 102 % of control | dose: 50.0 mg/kg/injection, schedule: Q04DX002 (ip), vehicle: saline with Tween-80 91 % of control | dose: 100.0 mg/kg/injection, schedule: Q04DX002 (ip), vehicle: saline with Tween-80 89 % of control

O=C1CSCCN1
inactive: [3] 101 % of control | [4] 101 % of control | [5] 98 % of control

CC(=O)C(C(C)=O)C(C)=O.CC(=O)C(C(C)=O)C(C)=O.CC(=O)C(C(C)=O)C(C)=O.[Cr]
inactive: [6] 100 % of control | [7] 94 % of control | [8] 105 % of control | [9] 100 % of control

CN1CCC2(CC1)C(=O)N(Nc1ccccc1)C(=O)C2c1ccccc1 (stereo not given)
inactive: [10] 101 % of control | [11] 93 % of control

COc1ccc(NC(=O)Oc2ccc3c(C)cc(=O)oc3c2)c(OC)c1
inactive: [2] 106 % of control | [12] 101 % of control | [13] 106 % of control | [14] 116 % of control | [15] 118 % of control | [16] 106 % of control

c1ccn2cncc2c1
inactive: [17] 95 % of control | [18] 106 % of control | [19] 102 % of control

CN(C)c1ccc2c(c1)Cc1cc(NC(N)=O)ccc1-2
inactive: [7] 115 % of control | [8] 96 % of control | [9] 91 % of control

N#C/C(=C/c1ccccc1)C(=O)O
inactive: [6] 87 % of control | [7] 96 % of control | [8] 107 % of control

NC(CSS(=O)(=O)O)=NCc1cccnc1
inactive: [10] 89 % of control | [11] 105 % of control

[O-]c1nn(-c2ccccc2)c2cccc[n+]12
inactive: [17] 111 % of control

O=C(O)C(F)(F)C(F)(F)F.[Ag]
inactive: dose: 75.0 mg/kg/injection, schedule: Q01DX001 (ip), vehicle: acetone 87 % of control

Cc1cc(OCc2nc(N)nc(N)c2-c2ccc(Cl)c(Cl)c2)ccc1NC(=O)c1cc(S(=O)(=O)F)ccc1Cl
inactive: dose: 100.0 mg/kg/injection, schedule: Q01DX001 (ip), vehicle: saline with Tween-80 98 % of control | dose: 200.0 mg/kg/injection, schedule: Q01DX001 (ip), vehicle: saline with Tween-80 93 % of control | dose: 400.0 mg/kg/injection, schedule: Q01DX001 (ip), vehicle: saline with Tween-80 97 % of control

NC(CCl)=NCC12CC3CC(CC(C3)C1)C2
inactive: [10] 98 % of control | [11] 104 % of control and 87 % of control

O=C1C(N2CCOCC2)=Cc2cccc3cccc1c23
inactive: [1] 103 % of control | [2] 97 % of control | [12] 92 % of control | [13] 97 % of control and 90 % of control | [14] 97 % of control

COC(=O)C1CC2(C(=O)OC)CC(C(=O)OC)(CC(C(=O)OC)C2=O)C1=O (stereo not given)
inactive: dose: 50.0 mg/kg/injection, schedule: Q04DX002 (ip), vehicle: Klucel (hydroxypropylcellulose) (HPC) 93 % of control | [10] 102 % of control | [20] 95 % of control | [11] 108 % of control | [21] 89 % of control | [22] 92 % of control

CC1CN1N (stereo not given)
inactive: dose: 25.0 mg/kg/injection, schedule: Q01DX009 (ip), vehicle: saline 101 % of control | [23] 101 % of control | dose: 50.0 mg/kg/injection, schedule: Q04DX003 (ip), vehicle: saline 109 % of control | [24] 105 % of control | [25] 98 % of control | [3] 103 % of control | [26] 105 % of control

CN(C)/C(N)=N/N
inactive: dose: 15.0 mg/kg/injection, schedule: Q01DX Z (ip), vehicle: methylcellulose (MC) 113 % of control | dose: 30.0 mg/kg/injection, schedule: Q01DX Z (ip), vehicle: methylcellulose (MC) 109 % of control | dose: 60.0 mg/kg/injection, schedule: Q01DX Z (ip), vehicle: methylcellulose (MC) 100 % of control | dose: 120.0 mg/kg/injection, schedule: Q01DX Z (ip), vehicle: methylcellulose (MC) 103 % of control | dose: 125.0 mg/kg/injection, schedule: Q01DX Z (oral), vehicle: methylcellulose (MC) 90 % of control | dose: 240.0 mg/kg/injection, schedule: Q01DX Z (ip), vehicle: methylcellulose (MC) 101 % of control | dose: 250.0 mg/kg/injection, schedule: Q01DX Z (oral), vehicle: methylcellulose (MC) 101 % of control | dose: 375.0 mg/kg/injection, schedule: Q01DX Z (ip), vehicle: methylcellulose (MC) 110 % of control | dose: 480.0 mg/kg/injection, schedule: Q01DX Z (ip), vehicle: methylcellulose (MC) 107 % of control

Cc1ccc(Cl)cc1NC(=O)c1c(Br)c(Br)c(Br)c(Br)c1C(=O)O
inactive: [2] 105 % of control | [12] 97 % of control | [13] 105 % of control | [14] 101 % of control | [15] 113 % of control | [16] 101 % of control

Cc1ccc(S(=O)(=O)N(C)CCC(C)C(=O)NN(C)c2ccccc2)cc1 (stereo not given)
inactive: [17] 95 % of control | [18] 89 % of control | [19] 90 % of control

O=C(CCCC(=O)NNC(=O)Nc1cccc(Cl)c1)NNC(=O)Nc1cccc(Cl)c1
inactive: dose: 50.0 mg/kg/injection, schedule: Q01DX001 (ip), vehicle: saline 96 % of control | [24] 106 % of control | [26] 106 % of control | [27] 93 % of control

O=C(NCCCl)Oc1cccc2c1CCCC2
inactive: [28] 87 % of control | [20] 103 % of control | [29] 97 % of control | [21] 100 % of control | [30] 100 % of control | [22] 100 % of control

CCOC(=O)C(C(=O)Nc1ccccc1)C(=O)OCC
inactive: [28] 99 % of control | [20] 90 % of control | [29] 100 % of control | [21] 93 % of control | [30] 105 % of control | [22] 98 % of control

Cc1cc([N+](=O)[O-])c2ccccc2c1N(CC(=O)O)S(=O)(=O)c1ccccc1
inactive: [2] 93 % of control | [12] 90 % of control | [13] 99 % of control | [14] 97 % of control | [15] 104 % of control | [16] 89 % of control

CC(C)n1cc2c(N)ncnc2n1
inactive: [23] 117 % of control | [24] 96 % of control | [25] 104 % of control | [3] 103 % of control | [26] 104 % of control | [4] 108 % of control | [27] 100 % of control | [5] 100 % of control

COc1ccc(/C(=N\O)C(C)=O)cc1OC
inactive: [10] 103 % of control | [11] 103 % of control | dose: 400.0 mg/kg/injection, schedule: Q04DX002 (ip), vehicle: Klucel (hydroxypropylcellulose) (HPC) 91 % of control

CCCCC(CC)CN(CC(CC)CCCC)c1nc(Cl)nc(N(CC(CC)CCCC)CC(CC)CCCC)n1 (stereo not given)
inactive: dose: 25.6 mg/kg/injection, schedule: Q04DX002 (ip), vehicle: saline with Tween-80 91 % of control | dose: 64.0 mg/kg/injection, schedule: Q04DX002 (ip), vehicle: saline with Tween-80 97 % of control | [12] 92 % of control | dose: 160.0 mg/kg/injection, schedule: Q04DX002 (ip), vehicle: saline with Tween-80 91 % of control | [14] 94 % of control | dose: 400.0 mg/kg/injection, schedule: Q04DX002 (ip), vehicle: saline with Tween-80 91 % of control | [16] 92 % of control
